Data reported in patent publication US20240116985A1, “STAPLED PEPTIDES AND METHODS THEREOF” (priority 2020, published 2024).

Each molecule was assayed against T1, full-length beta-Catenin (Uniprot ID P35222) (Homo sapiens, UniProt P35222) (assay: Fluorescence polarization IC50 (beta-catenin / 5FAM-TCF4 10-53 competition)). Conditions: fluorescence polarization; read-out: beta-Catenin FP IC50.
T1 construct: 10 nM full-length beta-Catenin (Uniprot ID P35222)
T1 sequence (P35222 1-781): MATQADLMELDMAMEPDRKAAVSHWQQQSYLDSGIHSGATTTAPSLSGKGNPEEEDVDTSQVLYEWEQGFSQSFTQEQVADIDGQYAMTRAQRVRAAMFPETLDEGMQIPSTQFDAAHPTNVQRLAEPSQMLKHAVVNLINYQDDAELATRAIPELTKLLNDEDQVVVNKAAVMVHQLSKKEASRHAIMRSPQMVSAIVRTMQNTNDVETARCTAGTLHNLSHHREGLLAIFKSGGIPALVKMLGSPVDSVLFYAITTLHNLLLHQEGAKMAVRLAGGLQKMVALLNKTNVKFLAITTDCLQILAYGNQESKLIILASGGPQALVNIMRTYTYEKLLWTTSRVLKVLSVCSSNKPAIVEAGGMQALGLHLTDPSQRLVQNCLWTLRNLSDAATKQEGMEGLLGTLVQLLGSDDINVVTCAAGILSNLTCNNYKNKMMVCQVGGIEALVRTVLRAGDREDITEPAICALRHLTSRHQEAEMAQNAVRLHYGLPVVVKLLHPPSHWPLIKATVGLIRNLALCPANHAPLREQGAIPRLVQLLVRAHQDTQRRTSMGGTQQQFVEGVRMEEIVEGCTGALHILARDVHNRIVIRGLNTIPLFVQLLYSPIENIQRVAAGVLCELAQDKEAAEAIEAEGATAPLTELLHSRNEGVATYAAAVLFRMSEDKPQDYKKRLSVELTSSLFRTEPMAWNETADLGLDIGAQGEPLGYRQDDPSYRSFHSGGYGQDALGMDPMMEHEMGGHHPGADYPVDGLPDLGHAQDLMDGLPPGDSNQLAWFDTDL
Assay type: binding
With `CC(=O)N1CCC[C@H]1C(=O)N[C@]1(C)CCCCCCCCC2(CCCCCCCCOC(=O)N3CC[C@@](C(=O)N[C@@H](Cc4ccccc4C(F)(F)F)C(=O)N[C@@H](Cc4csc5ccccc45)C(=O)N[C@@H](CCC(N)=O)C(N)=O)(C3)NC(=O)[C@H](CC(C)C)NC(=O)[C@H](Cc3ccccc3)NC(=O)[C@H](C)NC(=O)[C@H](C)NC(=O)[C@H](Cc3cccc(C(=O)O)c3)NC(=O)[C@H](CC(=O)O)NC2=O)NC(=O)[C@H](CC(C)(C)C)NC(=O)[C@H](CC(=O)O)NC1=O` (stereo partly drawn) [I-2573, Ac-Pro-R5-Asp-Npg-B5-Asp-3COOHF-Ala-Ala-Phe-Leu-PyrS2-2F3MeF-BztA-Gln-NH2] the IC50 was 234 nM. In the case of `CC(=O)N[C@]1(C)CCCCCCCCC2(CCCCCCCCOC(=O)N3CC[C@@](C(=O)N[C@@H](Cc4ccccc4C(F)(F)F)C(=O)N[C@@H](Cc4csc5ccccc45)C(=O)N[C@@H](CCC(N)=O)C(N)=O)(C3)NC(=O)[C@H](CC(C)C)NC(=O)[C@H](Cc3ccccc3)NC(=O)[C@H](C)NC(=O)[C@H](C)NC(=O)[C@H](Cc3cccc(C(=O)O)c3)NC(=O)[C@H](CC(=O)O)NC2=O)NC(=O)[C@H](CC(C)(C)C)NC(=O)[C@H](CC(=O)O)NC(=O)[C@H](C)NC1=O` (stereo partly drawn) [I-2574, Ac-R5-Ala-Asp-Npg-B5-Asp-3COOHF-Ala-Ala-Phe-Leu-PyrS2-2F3MeF-BztA-Gln-NH2], the IC50 is reported as 2960 nM. `CC(=O)N1CCC[C@H]1C(=O)N[C@]1(C)CCCC=CCCCC2(CCCC=CCCCOC(=O)N3CC[C@@](C(=O)N[C@@H](Cc4ccccc4C(F)(F)F)C(=O)N[C@@H](Cc4csc5ccccc45)C(=O)N[C@@H](CCC(N)=O)C(N)=O)(C3)NC(=O)[C@H](CC(C)C)NC(=O)[C@H](Cc3ccccc3)NC(=O)[C@H](C)NC(=O)[C@H](C)NC(=O)[C@H](Cc3cccc(C(=O)O)c3)NC(=O)[C@H](CC(=O)O)NC2=O)NC(=O)[C@H](CC(C)(C)C)NC(=O)[C@H](CC(=O)O)NC(=O)[C@H](CCC(=O)O)NC1=O` (stereo partly drawn) [I-2575, Ac-Pro-R5-Glu-Asp-Npg-B5-Asp-3COOHF-Ala-Ala-Phe-Leu-PyrS2-2F3MeF-BztA-Gln-NH2] was tested, and the IC50 was 8160 nM. Work on `CC(=O)N1CCC[C@]12CC=CCCCC1(CCCC=CCCOC(=O)N3CCC(C(=O)N[C@@H](Cc4ccccc4C(F)(F)F)C(=O)N[C@@H](Cc4csc5ccccc45)C(=O)N[C@@H](CCC(N)=O)C(N)=O)(CC3)NC(=O)[C@H](CC(C)C)NC(=O)[C@H](Cc3ccccc3)NC(=O)[C@H](C)NC(=O)[C@H](C)NC(=O)[C@H](Cc3cccc(C(=O)O)c3)NC(=O)[C@H](CC(=O)O)NC1=O)NC(=O)[C@H](CC(C)(C)C)NC(=O)[C@H](CC(=O)O)NC2=O` (stereo partly drawn) [I-2580, Ac-PL3-Asp-Npg-B5-Asp-3COOHF-Ala-Ala-Phe-Leu-SPip1-2F3MeF-BztA-Gln-NH2] yielded an IC50 of 993 nM. For `CC(=O)N1CCC[C@]12CC=CCCCC1(CCCC=CCCOC(=O)N3CCC(C(=O)N[C@@H](Cc4ccccc4C(F)(F)F)C(=O)N[C@@H](Cc4csc5ccccc45)C(=O)N[C@@H](C)C(N)=O)(CC3)NC(=O)[C@H](CC(C)C)NC(=O)[C@H](Cc3ccccc3)NC(=O)[C@H](C)NC(=O)[C@H](CCC(N)=O)NC(=O)[C@H](Cc3cccc(C(=O)O)c3)NC(=O)[C@H](CC(=O)O)NC1=O)NC(=O)[C@H](CC(C)(C)C)NC(=O)[C@H](CC(=O)O)NC2=O` (stereo partly drawn) [I-2584, Ac-PL3-Asp-Npg-B5-Asp-3COOHF-Gln-Ala-Phe-Leu-SPip1-2F3MeF-BztA-Ala-NH2], the IC50 was 1840 nM. In the case of `CC(=O)N1CCC[C@]12CC=CCCCC1(CCCC=CCCCOC(=O)N3CCC(C(=O)N[C@@H](Cc4ccccc4C(F)(F)F)C(=O)N[C@@H](Cc4csc5ccccc45)C(=O)N[C@@H](C)C(N)=O)(CC3)NC(=O)[C@H](CC(C)C)NC(=O)[C@H](Cc3ccccc3)NC(=O)[C@H](C)NC(=O)[C@H](CCC(N)=O)NC(=O)[C@H](Cc3cccc(C(=O)O)c3)NC(=O)[C@H](CC(=O)O)NC1=O)NC(=O)[C@H](CC(C)(C)C)NC(=O)[C@H](CC(=O)O)NC2=O` (stereo partly drawn) [I-2585, Ac-PL3-Asp-Npg-B5-Asp-3COOHF-Gln-Ala-Phe-Leu-SPip2-2F3MeF-BztA-Ala-NH2], the IC50 is reported as 452 nM. Work on `CC(=O)N1CCC[C@]12CC=CCCCC1(CCCC=CCCCOC(=O)N3CCC(C(=O)N[C@@H](Cc4ccccc4C(F)(F)F)C(=O)N[C@@H](Cc4csc5ccccc45)C(=O)N[C@@H](C)C(N)=O)(CC3)NC(=O)[C@H](CC(C)C)NC(=O)[C@H](Cc3ccccc3)NC(=O)[C@H](C)NC(=O)[C@H](CCC(N)=O)NC(=O)[C@H](Cc3cccc(C(=O)O)c3)NC(=O)[C@H](CC(=O)O)NC1=O)NC(=O)[C@H](CC(C)(C)C)NC(=O)[C@H](CC(=O)O)NC2=O` (stereo partly drawn) [I-2586, Ac-PL3-Asp-Npg-B5-Asp-3COOHF-Gln-Ala-Phe-Leu-SPip2-2F3MeF-BztA-Ala-NH2] yielded an IC50 of 345 nM. `CC(=O)N1CCC[C@]12CC=CCCCC1(CCCC=CCCCCOC(=O)N3CCC(C(=O)N[C@@H](Cc4ccccc4C(F)(F)F)C(=O)N[C@@H](Cc4csc5ccccc45)C(=O)N[C@@H](C)C(N)=O)(CC3)NC(=O)[C@H](CC(C)C)NC(=O)[C@H](Cc3ccccc3)NC(=O)[C@H](C)NC(=O)[C@H](CCC(N)=O)NC(=O)[C@H](Cc3cccc(C(=O)O)c3)NC(=O)[C@H](CC(=O)O)NC1=O)NC(=O)[C@H](CC(C)(C)C)NC(=O)[C@H](CC(=O)O)NC2=O` (stereo partly drawn) [I-2587, Ac-PL3-Asp-Npg-B5-Asp-3COOHF-Gln-Ala-Phe-Leu-SPip3-2F3MeF-BztA-Ala-NH2] showed an IC50 of 273 nM. `CC(=O)N1CCC[C@]12CC=CCCCC1(CCCC=CCCCOC(=O)N3CCC(C(=O)N[C@@H](Cc4ccsc4)C(=O)N[C@@H](Cc4csc5ccccc45)C(=O)N[C@@H](CCC(N)=O)C(N)=O)(CC3)NC(=O)[C@H](CC(C)C)NC(=O)[C@H](Cc3ccccc3)NC(=O)[C@H](C)NC(=O)[C@H](C)NC(=O)[C@H](Cc3cccc(C(=O)O)c3)NC(=O)[C@H](CC(=O)O)NC1=O)NC(=O)[C@H](CC(C)(C)C)NC(=O)[C@H](CC(=O)O)NC2=O` (stereo partly drawn) [I-2588, Ac-PL3-Asp-Npg-B5-Asp-3COOHF-Ala-Ala-Phe-Leu-SPip2-3Thi-BztA-Gln-NH2] gave an IC50 of 26 nM. Work on `CC(=O)N1CCC[C@]12CC=CCCCC1(CCCC=CCCOC(=O)N3CCC(C(=O)N[C@@H](Cc4ccsc4)C(=O)N[C@@H](Cc4csc5ccccc45)C(=O)N[C@@H](C)C(N)=O)(CC3)NC(=O)[C@H](CC(C)C)NC(=O)[C@H](Cc3ccccc3)NC(=O)[C@H](C)NC(=O)[C@H](CCC(N)=O)NC(=O)[C@H](Cc3cccc(C(=O)O)c3)NC(=O)[C@H](CC(=O)O)NC1=O)NC(=O)[C@H](CC(C)(C)C)NC(=O)[C@H](CC(=O)O)NC2=O` (stereo partly drawn) [I-2591, Ac-PL3-Asp-Npg-B5-Asp-3COOHF-Gln-Ala-Phe-Leu-SPip1-3Thi-BztA-Ala-NH2] yielded an IC50 of 602 nM. In the case of `CC(=O)N1CCC[C@]12CC1OC1CCCC1(CCCC=CCCCOC(=O)N3CC[C@@](C(=O)N[C@@H](Cc4ccccc4C(F)(F)F)C(=O)N[C@@H](Cc4csc5ccccc45)C(=O)N[C@@H](CCC(N)=O)C(N)=O)(C3)NC(=O)[C@H](CC(C)C)NC(=O)[C@H](Cc3ccccc3)NC(=O)[C@H](C)NC(=O)[C@H](C)NC(=O)[C@H](Cc3cccc(C(=O)O)c3)NC(=O)[C@H](CC(=O)O)NC1=O)NC(=O)[C@H](CC(C)(C)C)NC(=O)[C@H](CC(=O)O)NC2=O` (stereo partly drawn) [I-2597, Ac-PL3-Asp-Npg-B5-Asp-3COOHF-Ala-Ala-Phe-Leu-PyrS2-2F3MeF-BztA-Gln-NH2], the IC50 is reported as 726 nM.
